Measurements: patent US20190115105A1, “TANDEM DUPLICATOR PHENOTYPE (TDP) AS A DISTINCT GENOMIC CONFIGURATION IN CANCER AND USE THEREOF” (The Jackson Laboratory, priority 2016, published 2019)
Where two headings read alike, the source gives them in different places. Each block holds one compound with its values, some of them ahead of it.

Experiments:
HCC1187 [1] = conditions: HCC1187, TNBC, TDP, TDP Score 0.152; GDSC data base; cited from earlier work
HCC2218 = conditions: HCC2218, ERBB2+, non-TDP, TDP Score −0.849; GDSC data base; cited from earlier work
HCC1599 [2] = conditions: HCC1599, TNBC, non-TDP, TDP Score −0.447; GDSC data base; cited from earlier work
HCC2157 = conditions: HCC2157, TNBC, TDP, TDP Score 0.076; GDSC data base; cited from earlier work
HCC1954 = conditions: HCC1954, ERBB2+, non-TDP, TDP Score −0.434; GDSC data base; cited from earlier work
[3] = system: TNBC patient derived xenograft (PDX) models; experiment: In vivo response in patient derived xenograft (PDX) models of TNBC; design: species or system mice; conditions: for association of the TDP with sensitivity in PDX models: same eight TNBC PDX models, data not shown
Text: This hypothesis was explored further by testing in vivo response to cisplatin treatment in eight independent patient derived xenograft (PDX) models of TNBC. […] Thus in both established cell lines and in in vivo patient derived xenografts, TDP status is strongly associated with cisplatin sensitivity.
TNBC patient-derived xenograft models were established at The Jackson Laboratory campus in Sacramento (JAX-West) and tested for cisplatin sensitivity as previously published. All animal procedures were performed under IACUC protocol #12027. Briefly, patient tumor material acquired from biopsy or surgical resection was implanted subcutaneously into the flank of NOD-scid IL2r gamma-chain null female mice (8-10 week-old). Models were considered “established” when log-phase growth in a second passage was evident. Individual tumor-bearing mice were randomized into treatments cohorts of at least six animals each on an accrual basis when tumors reached a volume of 150 mm^3 (day 0), at which point each tumor model was assessed for its response to cisplatin treatment, administrated at a dose of 2 mg/kg body weight and following a three-week regimen consisting of one IV injection per week. Changes in tumor volumes were measured twice a week for four full weeks from the beginning of the treatment or until tumor volumes reached the 1500 mm^3 endpoint. Treatment outcome was evaluated in terms of total response (percentage of tumor shrinkage/growth at day 20 relative to day 0). The […] TNBC PDX models that were available as part of The Jackson Laboratory inventory of TNBC PDX Live™ tumor-bearing mice were analyzed. In combination with a high number of replicates per model (6-10 animals per treatment arm), enough power to observe the statistically significant effect of the TDP configuration on cisplatin response was obtained.

HCC38 [4] = conditions: HCC38, TNBC, TDP, TDP Score 0.367; GDSC data base; cited from earlier work
HCC1395 [5] = experiment: Cell viability IC50 (WST-8), HCC1395; assay type: cell-based, human; conditions: HCC1395, TDP Score 0.118, 72 hours
Text: (§1) All of the cell lines were purchased from the American Type Culture Collection (ATCC). They were authenticated by Short Tandem Repeat (STR) DNA profiling and regularly tested for Mycoplasma contamination using the MycoAlert PLUS Mycoplasma Detection Kit (Lonza). MB436, HCC38, HCC1187, HCC1395, MDA-MB231, HCC1937, HCC1599, HCC1143, HCC70, DU4475, MDA-MB157, HCC1806 were maintained in RPMI with 10% fetal bovine serum (FBS). BT549 was maintained in DMEM with 10% v/v FBS, and Hs578T in DMEM with 10% FBS and 0.01 mg/ml bovine insulin. IC50 value determinations were obtained by plating target cells in 96 well plates at a density of 1-5×10^3 cells per well. After twenty-four hours, cisplatin (Santa Cruz Biotechnology, Inc.) or carboplatin (Selleck Chemicals) were added to the culture medium in half-log serial dilutions in the range of 3.3 nM to 100 μM, in triplicate wells. Cells were incubated for 72 hours before assessing cell viability using the WST-8 assay (Dojindo Molecular Technologies, Inc.). Absorbance values were normalized to control wells (medium only) and IC50 values were calculated using the IC50R package. Two independent replicate experiments were carried out for each cell line and each treatment and the average IC50 value from the two experiments was used for the analysis.

HCC1806 = experiment: Cell viability IC50 (WST-8), HCC1806; assay type: cell-based, human; conditions: HCC1806, TDP Score 0.08, 72 hours
Text: as §1

Hs578T = experiment: Cell viability IC50 (WST-8), Hs578T; assay type: cell-based, human; conditions: TDP Score −0.54, 72 hours
Text: as §1

BT549 = experiment: Cell viability IC50 (WST-8), BT549; assay type: cell-based, human; conditions: BT549, TDP Score −0.3, 72 hours
Text: as §1

HCC1599 [6] = experiment: Cell viability IC50 (WST-8), HCC1599; assay type: cell-based, human; conditions: HCC1599, TDP Score −0.447, 72 hours
Text: as §1

HCC1187 [7] = experiment: Cell viability IC50 (WST-8), HCC1187; assay type: cell-based, human; conditions: HCC1187, TDP Score 0.152, 72 hours
Text: as §1

HCC1937 [8] = experiment: Cell viability IC50 (WST-8), HCC1937; assay type: cell-based, human; conditions: HCC1937, TDP Score −0.17, 72 hours
Text: as §1

HCC70 = experiment: Cell viability IC50 (WST-8), HCC70; assay type: cell-based, human; conditions: HCC70, TDP Score −0.3, 72 hours
Text: as §1

MB231 [9] = conditions: MB231, TNBC, non-TDP, TDP Score −0.306; GDSC data base; cited from earlier work
HCC38 [10] = experiment: Cell viability IC50 (WST-8), HCC38; assay type: cell-based, human; conditions: HCC38, TDP Score 0.367, 72 hours
Text: as §1

HCC1937 [11] = conditions: HCC1937, TNBC, non-TDP, TDP Score −0.17; GDSC data base; cited from earlier work
T47D = conditions: ER/PR+, non-TDP, TDP Score −0.269, GDSC data base; cited from earlier work
MB157 = experiment: Cell viability IC50 (WST-8), MB157; assay type: cell-based, human; conditions: MB157, TDP Score −0.39, 72 hours
Text: as §1

HCC1143 = experiment: Cell viability IC50 (WST-8), HCC1143; assay type: cell-based, human; conditions: HCC1143, TDP Score −0.424, 72 hours
Text: as §1

DU4475 = experiment: Cell viability IC50 (WST-8), DU4475; assay type: cell-based, human; conditions: DU4475, TDP Score −0.36, 72 hours
Text: as §1

MB231 [12] = experiment: Cell viability IC50 (WST-8), MB231; assay type: cell-based, human; conditions: MB231, TDP Score −0.306, 72 hours
Text: as §1

MB436 = experiment: Cell viability IC50 (WST-8), MB436; assay type: cell-based, human; conditions: MB436, TDP Score 0.469, 72 hours
Text: as §1

HCC1395 [13] = conditions: HCC1395, TNBC, TDP, TDP Score 0.118; GDSC data base; cited from earlier work
MCF-7 = conditions: MCF-7, ER/PR+, TDP, TDP Score 0.385; GDSC data base; cited from earlier work

SMILES: Cc1cc(N2CCOCC2)cc2[nH]c(-c3c(NC[C@@H](O)c4cccc(Cl)c4)cc[nH]c3=O)nc12 [BMS-536924]
IC50 Ln (μM) (HCC1187 [1]): 2.81 Ln (μM)
IC50 Ln (μM) (HCC2218): 6.22 Ln (μM)
IC50 Ln (μM) (HCC1599 [2]): 5.27 Ln (μM)
IC50 Ln (μM) (HCC2157): 3.64 Ln (μM)

SMILES: N.N.[Cl][Pt][Cl] [Cisplatin, cisplatin]
IC50 Ln (μM) (HCC1954): 6.94 Ln (μM)
tumor growth compared to the vehicle arm ([3]; all five TDP PDX models, three-week regimen, 2 mg/kg IV weekly): significant reduction in tumor growth
tumor shrinkage of individual tumors (partial response) ([3]; four out of the five TDP PDX models, three-week regimen, 2 mg/kg, one IV injection per week): > 80%
reduction in tumor volume after three weeks of treatment ([3]; three non-TDP PDX models, 2 mg/kg IV weekly): none of the three non-TDP models analyzed exhibited a reduction in tumor volume
response compared to the vehicle arm ([3]; three non-TDP PDX models, three-week regimen, 2 mg/kg IV weekly): only one out of the three models showed a significant response
IC50 Ln (μM) (HCC1187 [1]): 4.76 Ln (μM)
IC50 Ln (μM) (HCC38 [4]): 5.07 Ln (μM)
IC50 Ln (μM) (HCC1395 [5]): 2.4 Ln (μM)
IC50 Ln (μM) (HCC1806): 2.76 Ln (μM)
IC50 Ln (μM) (Hs578T): 3.62 Ln (μM)
IC50 Ln (μM) (BT549): 2.28 Ln (μM)
IC50 Ln (μM) (HCC2218): 5.99 Ln (μM)
IC50 Ln (μM) (HCC1599 [6]): 2.65 Ln (μM)
IC50 Ln (μM) (HCC1187 [7]): 2.15 Ln (μM)
IC50 Ln (μM) (HCC1937 [8]): 3.22 Ln (μM)
IC50 Ln (μM) (HCC70): 2.75 Ln (μM)
IC50 Ln (μM) (MB231 [9]): 5.57 Ln (μM)
IC50 Ln (μM) (HCC38 [10]): 2.8 Ln (μM)
IC50 Ln (μM) (HCC1937 [11]): 4.92 Ln (μM)
IC50 Ln (μM) (T47D): 4.86 Ln (μM)
IC50 Ln (μM) (MB157): 2.62 Ln (μM)
IC50 Ln (μM) (HCC1143): 3.3 Ln (μM)
IC50 Ln (μM) (DU4475): 2.04 Ln (μM)
IC50 Ln (μM) (MB231 [12]): 3.52 Ln (μM)
IC50 Ln (μM) (MB436): 1.17 Ln (μM)
IC50 Ln (μM) (HCC1395 [13]): 4.96 Ln (μM)

SMILES: Nc1ccn([C@@H]2O[C@H](CO)[C@@H](O)[C@@H]2O)c(=O)n1 [Cytarabine]
IC50 Ln (μM) (HCC1954): 3.41 Ln (μM)
IC50 Ln (μM) (HCC1187 [1]): 3.36 Ln (μM)
IC50 Ln (μM) (HCC38 [4]): 0.63 Ln (μM)
IC50 Ln (μM) (HCC2218): 4.68 Ln (μM)
IC50 Ln (μM) (MB231 [9]): 2.18 Ln (μM)
IC50 Ln (μM) (MCF-7): 0.69 Ln (μM)
IC50 Ln (μM) (HCC1937 [11]): 3.32 Ln (μM)
IC50 Ln (μM) (T47D): 3.47 Ln (μM)
IC50 Ln (μM) (HCC1395 [13]): 1.1 Ln (μM)

SMILES: COc1cc(N2CCC(N3CCN(C)CC3)CC2)ccc1Nc1ncc(Cl)c(Nc2ccccc2S(=O)(=O)C(C)C)n1 [NVP-TAE684]
IC50 Ln (μM) (HCC1187 [1]): 0.62 Ln (μM)
IC50 Ln (μM) (HCC2218): 5.37 Ln (μM)
IC50 Ln (μM) (HCC1599 [2]): 2.98 Ln (μM)
IC50 Ln (μM) (HCC2157): 0.38 Ln (μM)

IC50 Ln (μM) (HCC1395 [5]): 4.28 Ln (μM)
IC50 Ln (μM) (HCC1806): 2.40 Ln (μM)
IC50 Ln (μM) (BT549): 3.09 Ln (μM)
IC50 Ln (μM) (HCC1187 [7]): 3.57 Ln (μM)
IC50 Ln (μM) (HCC1937 [8]): 4.51 Ln (μM)
IC50 Ln (μM) (HCC38 [10]): 1.99 Ln (μM)
IC50 Ln (μM) (HCC1143): 4.57 Ln (μM)
SMILES: O=C(c1cc(Cc2n[nH]c(=O)c3ccccc23)ccc1F)N1CCN(C(=O)C2CC2)CC1 [Olaparib, olaparib]
IC50 Ln (μM) (Hs578T): 4.61 Ln (μM)
IC50 Ln (μM) (HCC70): 4.19 Ln (μM)
IC50 Ln (μM) (MB157): 3.16 Ln (μM)
IC50 Ln (μM) (MB231 [12]): 3.49 Ln (μM)
IC50 Ln (μM) (MB436): 3.77 Ln (μM)

SMILES: CC(=O)O[C@@]12CO[C@@H]1C[C@H](O)[C@@]1(C)C(=O)[C@H](O)C3=C(C)[C@@H](OC(=O)[C@H](O)[C@@H](NC(=O)OC(C)(C)C)c4ccccc4)C[C@@](O)([C@@H](OC(=O)c4ccccc4)[C@H]21)C3(C)C [docetaxel]
association of the TDP with sensitivity in PDX models [3]: not associated with sensitivity

SMILES: COc1cccc2c1C(=O)c1c(O)c3c(c(O)c1C2=O)C[C@@](O)(C(=O)CO)C[C@@H]3O[C@H]1C[C@H](N)[C@H](O)[C@H](C)O1 [doxorubicin]
association of the TDP with sensitivity in PDX models [3]: not associated with sensitivity
